Results published in US7767625B2 (dated 2010).

melting point: 118 to 119 °C
SMILES: C=Cc1c(NC(=O)c2cn(C)nc2C(F)(F)F)cccc1C(C)(C)C
